We go through nine compounds from patent US3941790A, “Bis diketopiperazines” (National Research Development Corporation, priority 1967, dated 1976).

The structures appear in SMILES notation. Values after ≈ are worked out from the molar mass of the structure shown.

By inhibition is commonly meant the relative decrease from the control value, in per cent. Usually solubility stands for how much of the substance goes into solution per volume. Low values mean little dissolved substance, high ones much dissolved substance.

In one series the test system is Sarcoma 180 (S180). The series can be described thus: implanted tumor Sarcoma 180, mean tumor weight. The class given is in vivo, mice. As for the experimental part: (§1) ii. Mice having implanted tumors Sarcoma 180 and Adenocarcinoma 755, and rats having the implanted tumor Walker 256, are treated with 1,2-bis(3,5-dioxopiperazin-1-yl) ethane. The compound is administered by intraperitoneal injection of a suspension of the substance in isotonic saline containing 1/2% (w/v) carboxymethyl cellulose. The mice are dosed with 30 mg. of active substance per kilo daily for 5 out of 8 days, and their tumors are exercised and weighed. The rats are given one dose only of 400 mg. per kilo and maintained without further treatment for 8 days when their tumors are also removed and weighed. Compared with control animals typical Treated/Control values of mean tumor weight for the S180 and Ca 755 tumors are in the range of 5-10%, and for the Walker tumors of the order of 20%.
iii. In tests with tumor S180 similar to those described under (ii) typical Treated/Control values of mean tumor weight for dl-1,2-bis(3,5-dioxopiperazin-1-yl) butane and meso-2,3-bis(3,5-dioxopiperazin-1-yl) butane are 84% at 30 mg./Kg. and 22% at 0.25 mg./Kg. respectively.

A further series has as its system Walker 256. Briefly: implanted tumor Walker 256, mean tumor weight. The class given is in vivo. To be noted: rats, i.p., one dose of 400 mg. per kilo, 8 days. Here is the method:
as §1

Series [1] deals with secondary mouse fibroblast cultures. Briefly: inhibition of 3H-thymidine incorporation (rate of DNA synthesis) in mammalian cell cultures. To be noted: 22 hours incubation; for inhibition at 0.3 µg/mL: 0.3 μg./ml.; for inhibition at 1 µg/mL: 1 μg./ml.; for inhibition at 3 µg/mL: 3 μg./ml.; for inhibition at 200 µg/mL: 200 μg./ml. The class given is cell-based. Here is the method: The overall effects of various compounds on the rate of synthesis of DNA is mammalian cell cultures are determined with the method of Birnie and Simons (Experimental Cell Research, 1967, 46, 355) by measuring the changes in the amount of ^3 H-thymidine incorporated in 1 hour by secondary mouse fibroblast cultures which have been incubated with a particular compound for 22 hours.
Typical results illustrating the degree of inhibition of ^3 H-thymidine incorporation for the treated fibroblasts as compared with untreated fibroblasts are given in Table I. The results obtained can be regarded as a measure of cytotoxicity and correlate well with results obtained with implanted tumors in mice.

Series [2] concerns Adenocarcinoma 755 (Ca 755). Briefly: implanted tumor Adenocarcinoma 755, mean tumor weight. The class given is in vivo. To be noted: mice, i.p., 30 mg. per kilo daily for 5 out of 8 days. As for the experimental part: as §1
Series [3] relates to leukemia L1210. Briefly: leukemia L1210 implanted mice, survival time. Type of series: in vivo. The conditions noted are these: for Treated/Control value of survival time, L1210: similar to (ii). Here is the method: Mice implanted with leukemia L1210 are treated as described above with 30 mg. of active substance per kilo for a continuing period until all the animals succumb.

Series [4] concerns tumours and other forms of cancer. The series can be described thus: anti-cancer / biological activity, general statement. The conditions noted are these: for biological activity of d and l forms compared with racemic dl mixture: each substantially free from the other and from the dl form.
The nature of a further series: physchem. To be noted: water. The source says: Although the invention is restricted to one stereoisomeric form as far as certain compounds are concerned, others can exist in different stereoisomeric forms, thus the cyclo-butane analogue (I,R1 R2 = C2 H4) can exist in a trans form and also a cis form.
Series [5] concerns leukemia L1210. Briefly: inter-cerebrally implanted leukemia L1210. The class given is in vivo.
Series [6] deals with lymphosarcomas, fibrosarcomas, carcinomas, lymphoblastic leukemias and Hodgkin's disease. Briefly: trials in human patients with various forms of cancer. Type of series: in vivo. The conditions noted are these: some previously treated unsuccessfully with other drugs or radiotherapy.
Series [7] deals with leukemia L1210. The series can be described thus: leukemia L1210 ascites cells injected intraperitoneally, survival and non-takes (Table II). The class given is in vivo, mice. The conditions noted are these: daily i.p. 40 mg./Kg.; for Non-takes: groups of 10 mice, 10% DMSO control 1/10; for Mean survival days: 10% DMSO control 10.1; for Survival days: individual mice. As for the experimental part: v. A suspension of leukaemic cells from DBA2 mice heavily infected with leukemia L1210 is obtained by removing ascites from the peritoneal cavity. The ascitic fluid is diluted in saline and injected intraperitoneally at a level of 10^6 cell into groups of BDFi females.
Stock solutions of each of the dl, d and l isomers of 1,2-bis(3,5-dioxopiperaxin-1-yl)propane in dimethylsulphoxide (DMSO) are prepared and kept frozen. The solutions are thawed each morning and an aliquot diluted 10-fold with saline. Daily intraperitoneal injections of the three diluted solutions into groups of 10 mice are started on the day after innoculation of the leukaemic cells at a daily dosage level of 40 mg./Kg. (equivalent to 0.5 to 1.0 ml of solution per injection). A control group of mice is injected daily with a similar volume of 10% DMSO in saline.
In general, the deaths of mice in any group occur within a few days of each other. If one or more members of a group survive 5 days longer than any other of their companions, injections are stopped and if these mice survive a further 5 days they are classed as failures of transplantation. This is merely an objective criterion of a situation which is visually obvious; the "non-Takes" typically looking sleek and healthy and having no tumor at the inoculation site nor having their bellies swollen with ascitic fluid.

A short description of series [8]: stability of aqueous salt solutions. The class given is physicochemical. To be noted: acid solution plus disodium hydrogen phosphate, pH 5.7; injection within 1 hour of preparation recommended. As for the experimental part: When the compounds are to be formulated as salts, preferred formulations are prepared with methane sulphonic acid, isethionic acid, tartaric acid and other solubilizing acids. Salts thus formed are frequently difficult to isolate in view of the weak basicity of some of the parent compounds but their aqueous solutions, after adjustment to physiologically acceptable pH with buffers, are stable for extended periods of time. Solutions of similar strength, i.e., 0.5% (w/v), are also obtainable with hydrochloric acid.
iv. The product of Example 2 (0.548 g.) is added to 5 ml. of a 0.4N solution of (1) hydrochloric acid, (2) isethionic acid, (3) methane sulphonic acid, or (4) tartaric acid, and the mixture is made up to 100 ml. by the addition of water. The solution so obtained is added to an aqueous solution of disodium hydrogen phosphate (0.2M, 10 ml.) to provide a stable solution having a pH of 5.7. Injection of the solution within 1 hour of preparation is recommended.

Series [9] is described as follows: survival and weight gain of treated S180 tumor-bearing mice. The class given is in vivo. To be noted: fed at 30 mg./Kg. on 5 out of 8 days.
Another series deals with metastases. The series can be described thus: inhibition of metastases. To be noted: in vivo.

For `O=C1CN(CCN2CC(=O)NC(=O)C2)CC(=O)N1` [1,2-bis(3,5-dioxopiperazin-1-yl)ethane, 1,2-bis(3,5-Dioxopiperazin-1-yl)ethane], the “Treated/Control value of mean tumor weight, S180” value in the series on Sarcoma 180 (S180) (mice, i.p., 30 mg. per kilo daily for 5 out of 8 days) is 5-10%. Further, the “Treated/Control value of mean tumor weight, Walker” value in the series with Walker 256 is ~20%. In [1], this compound came in with an inhibition at 0.3 µg/mL of 21%. The compound also displayed an inhibition at 8 µg/mL in [1] (8 μg./ml.) of 69%. Besides, in series [2], the “Treated/Control value of mean tumor weight, Ca 755” value is 5-10%.
Turning to `C[C@H]([C@H](C)N1CC(=O)NC(=O)C1)N1CC(=O)NC(=O)C1` [meso-2,3-bis(3,5-Dioxopiperazin-1-yl)butane], the “Treated/Control value of mean tumor weight, S180” value in the series on Sarcoma 180 (S180) (0.25 mg./Kg., similar to (ii)) is on record as 22%. Further, the “Treated/Control value of survival time, L1210” value with leukemia L1210 [3] (0.25 mg./Kg.) is 165%. In addition, the “anti-cancer activity, in words” value in [4] was “significant activity”. Besides, in series [1] (0.002 μg./ml.), the inhibition at 0.002 µg/mL was 19%. The inhibition at 0.01 µg/mL in series [1] (0.01 μg./ml.) stood at 72%. This compound also yielded an inhibition at 1 µg/mL in series [1] of 78%.
`O=C1CN([C@@H]2CC[C@H]2N2CC(=O)NC(=O)C2)CC(=O)N1` (relative stereo) [trans-1,2-bis(3,5-Dioxopiperazin-1-yl)cyclobutane] gave an inhibition at 3 µg/mL in [1] of 22%. Further, in series [1] (67 μg./ml.), the inhibition at 67 µg/mL worked out at 60%.
In the case of `O=C(O)CN(CCN(CC(=O)O)CC(=O)O)CC(=O)O` [ethylene diamine tetra-acetic acid, reference compound], in series [4], the “anti-cancer activity, in words” value was “lack of activity”.
Consider `CC(CN1CC(=O)NC(=O)C1)N1CC(=O)NC(=O)C1` (racemic) [dl-1,2-bis(3,5-Dioxopiperazin-1-yl)propane], for which the “Treated/Control value for mean tumor weight, S180” value with Sarcoma 180 (S180) (mice, fed at 30 mg./Kg. on 5 out of 8 days) is 7%. For the same compound, the solubility in the series “physchem” was ~1000 µg/mL (≈ 3.73 mM). Besides, in the series with leukemia L1210 [5] (in vivo), the “effectiveness against inter-cerebrally implanted leukemia L1210” value is recorded as “effective”. In addition, the “ability to cross the blood-brain barrier” value with leukemia L1210 [5] (indicated by effect on inter-cerebrally implanted L1210) was “indicative of the ability of the compound to cross the blood-brain barrier”. Besides, the “regression and palliation of cancers in patients” value in series [6] is “significant regression and palliation of the cancers”. For the same compound, in the series on leukemia L1210 [3] (intraperitoneal, 30 mg./Kg. daily until death), the “Treated/Control value for survival time, L1210” value came to 257%. For the same compound, the “Treated/Control value for survival time, L1210” value with leukemia L1210 [3] (orally, 75 mg./Kg.) amounted to 157%. In the series on leukemia L1210 [3] (subcutaneous, 30 mg./Kg. daily until death), the “Treated/Control value for survival time, L1210” value was 223%. Further, in the series on leukemia L1210 [7], the “% Increase of survival time over controls” value (“% Increase of survival time” below) is on record as 86%, the Non-takes is given as 0/10 and the Mean survival days is given as 18.8 days. Further, the Survival days in the series with leukemia L1210 [7] (listed as dl-) worked out at 25 days. The stability of solution result in series [8] is recorded as “stable”. In series [1], this compound came in with an inhibition at 0.3 µg/mL of 15% and an inhibition at 1 µg/mL of 48%. The compound further registered an inhibition at 5 µg/mL in [1] (5 μg./ml.) of 63%. Also, the survival of animals entry in [9] was “all the animals surviving”. Moreover, in series [9] (controls 29%), the weight gain is listed as 12%.
Turning to `CC(CN1CC(=O)NC(=O)C1)N1CC(=O)NC(=O)C1` (centres unmarked) [1,2-bis(3,5-dioxopiperazin-1-yl)propane], the inhibition of metastases entry with metastases is recorded as “marked degree of inhibition of metastases”.
For `C[C@H](CN1CC(=O)NC(=O)C1)N1CC(=O)NC(=O)C1` [l-1,2-bis(3,5-Dioxopiperazin-1-yl)propane], the solubility in “physchem” is ~11000 µg/mL (≈ 41 mM). Moreover, in the series on leukemia L1210 [7], the “% Increase of survival time” value is 99%, the Non-takes is given as 0/10 and the Mean survival days is given as 20.1 days. The compound also came in with a Survival days in the series with leukemia L1210 [7] (listed as l-) of 26 days. For the same compound, the “biological activity of d and l forms compared with racemic dl mixture” value in [4] was “no substantial difference in biological activity”. In [1], this compound had an inhibition at 1 µg/mL of 52% and an inhibition at 200 µg/mL of 72%.
As for `C[C@@H](CN1CC(=O)NC(=O)C1)N1CC(=O)NC(=O)C1` [d-1,2-bis(3,5-Dioxopiperazin-1-yl)propane], in the series on leukemia L1210 [7], the “% Increase of survival time” value was 93%, the Non-takes was 0/10 and the Mean survival days was determined as 19.5 days. In the series on leukemia L1210 [7] (listed as d-), the Survival days was 26 days. In addition, the “biological activity of d and l forms compared with racemic dl mixture” value in series [4] is listed as “no substantial difference in biological activity”. In [1], this compound yielded an inhibition at 1 µg/mL of 44% and an inhibition at 200 µg/mL of 74%.
On to `C[C@H]([C@@H](C)N1CC(=O)NC(=O)C1)N1CC(=O)NC(=O)C1` (relative stereo) [dl-2,3-bis(3,5-dioxopiperazin-1-yl)butane, reference compound], for which the “Treated/Control value of mean tumor weight, S180” value with Sarcoma 180 (S180) (30 mg./Kg., similar to (ii)) amounted to 84%. In the series with leukemia L1210 [3] (30 mg./Kg.), the “Treated/Control value of survival time, L1210” value was 80%. The “anti-cancer activity, in words” value in [4] is “essentially inactive”. In series [1], this compound showed an inhibition at 3 µg/mL of 3%. In [1] (13 μg./ml.), this compound had an inhibition at 13 µg/mL of 26%.
